Reference: PubChem BioAssay (NCI)
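Cells were grown in 96-well plates and exposed to each compound for 48 hours at five concentrations; endpoints were interpolated linearly between bracketing concentrations, or set to the highest concentration if not reached. Abbreviation: GI50, concentration required for 50% inhibition of growth. TGI: concentration producing complete growth inhibition.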

Legend:
Test in all cases: NCI tumour cell line growth inhibition, 48 h
A549 NSCLC = test system: A549 NSCLC
K-562 leukemia = test system: K-562 leukemia
SN12K1 renal = test system: SN12K1 renal
M19-MEL melanoma = test system: M19-MEL melanoma
OVCAR-3 ovarian = test system: OVCAR-3 ovarian
SK-MEL-2 melanoma = test system: SK-MEL-2 melanoma
P388 leukemia = test system: P388 leukemia
HOP-18 NSCLC = test system: HOP-18 NSCLC
HOP-62 NSCLC = test system: HOP-62 NSCLC
BT-549 breast = test system: BT-549 breast
MDA-MB-435 = test system: MDA-MB-435
ACHN renal = test system: ACHN renal

Row | Compound | TGI (A549 NSCLC) | TGI (K-562 leukemia) | TGI (SN12K1 renal) | TGI (M19-MEL melanoma) | TGI (OVCAR-3 ovarian) | TGI (SK-MEL-2 melanoma) | TGI (P388 leukemia) | TGI (HOP-18 NSCLC) | TGI (HOP-62 NSCLC) | TGI (BT-549 breast) | TGI (MDA-MB-435) | TGI (ACHN renal) | GI50 (BT-549 breast) | GI50 (A549 NSCLC) | GI50 (K-562 leukemia) | GI50 (MDA-MB-435) | GI50 (OVCAR-3 ovarian) | GI50 (SK-MEL-2 melanoma) | GI50 (ACHN renal) | GI50 (HOP-62 NSCLC)
1 | COc1ccc2c3c1OC1CC(O)C=CC31CCN(C)C2 (stereo not drawn) | > 150 µM | > 150 µM | > 150 µM | > 150 µM | > 150 µM | > 150 µM | > 150 µM | > 150 µM | > 150 µM |  |  |  |  |  |  |  |  |  |  | 
2 | CCCC/C=C1\CCC(CN2CCCCC2)C1=O (stereo not drawn) | 52.9 µM | 22.8 µM |  | 34.5 µM | 46 µM | > 54.4 µM |  | 16.8 µM | 49.4 µM | > 100 µM | > 100 µM | 44.3 µM |  |  |  |  |  |  |  | 
3 | CCOC(=O)/C(O)=C1\C(=O)N(C)C(=O)C1c1ccc(OC)c(OC)c1 (stereo not drawn) | > 100 µM | > 100 µM | > 100 µM | > 100 µM | > 100 µM | > 100 µM | > 100 µM | > 100 µM | > 100 µM |  |  |  |  |  |  |  |  |  |  | 
4 | O=C(Nc1ccccc1F)c1c(O)nc2sccn2c1=O | > 10 µM |  |  |  | > 10 µM | > 10 µM |  |  | > 10 µM |  | > 10 µM | > 10 µM |  |  |  |  |  |  |  | 
5 | O=C1C(Br)=CC2([N+](=O)[O-])CCNc3c(O)c4c5c(c3C2=C1Br)=NCCC=5C=N4 (stereo not drawn) | 16.3 µM | 2.33 µM | 14.7 µM |  | 0.784 µM | 3.15 µM | 1.14 µM | 27.5 µM | 11 µM |  |  |  |  |  |  |  |  |  |  | 
6 | COc1ccc2[nH]c(C(=O)N3CC(CCl)c4ccc(N)cc43)cc2c1 (stereo not drawn) | > 86.9 µM | 0.494 µM |  |  |  | 0.396 µM |  |  | > 100 µM | 6.97 µM | 0.405 µM | 0.375 µM |  |  |  |  |  |  |  | 
7 | COC(=O)/C=C\Sc1ccn(/C=C\C(=O)OC)c(=S)n1 | 50.7 µM | > 100 µM |  |  | 26.7 µM | 46.9 µM |  |  | 32.4 µM | 44.9 µM | 86.6 µM | 32.2 µM |  |  |  |  |  |  |  | 
8 | O=C(CCCn1cnc([N+](=O)[O-])n1)NCCn1ccnc1[N+](=O)[O-] | > 100 µM | > 100 µM |  |  | > 100 µM | > 100 µM |  |  | > 100 µM | > 100 µM |  | > 100 µM |  |  |  |  |  |  |  | 
9 | CC1(C)OP23(NC(=O)OC2(C(F)(F)F)c2ccccc2O3)OC1(C)C (stereo not drawn) | > 100 µM | > 100 µM |  | > 100 µM | > 100 µM | > 100 µM |  | > 100 µM |  |  |  | > 100 µM |  |  |  |  |  |  |  | 
10 | CC(=O)O[C@H]1CC[C@@]2(C)C(=CC[C@@H]3[C@@H]2CC[C@]2(C)C(c4cccnc4)=CC[C@@H]32)C1 | > 100 µM | > 100 µM |  |  | > 100 µM | > 100 µM |  |  | > 100 µM | 17.3 µM | > 100 µM | 43.9 µM | 2.96 µM | 10.4 µM | 4.04 µM | 3.03 µM | 5.52 µM | > 100 µM | 4.88 µM | 6.24 µM
11 | N/N=C(\C(=O)Nc1c(Cl)cc([N+](=O)[O-])cc1Cl)C(c1cnc2ccc([N+](=O)[O-])cc2n1)[N+](=O)[O-] (stereo not drawn) | > 100 µM | > 100 µM |  | > 100 µM |  | > 100 µM |  |  | > 100 µM |  |  | > 100 µM |  |  |  |  |  |  |  | 
